In paper PMC10648204, “Discovery of Novel Biphenyl Carboxylic Acid Derivatives as Potent URAT1 Inhibitors” (Molecules, 2023) one finds inhibition, melting point and IC50 data, which are given here for 40 molecules.

In general, inhibition refers to the relative decrease from the control value, in per cent. The low end stands for a response near the control, the high end for a response far below the control. In general, melting point refers to the temperature, or range, at which the solid turns liquid. Usually IC50 stands for the midpoint of a concentration-inhibition curve. Read a high IC50 as weaker potency in that assay.

For series [1], the target named is T1, human URAT1 (Homo sapiens, UniProt Q96S37).
T1 construct: expressed in transfected cells; host or cells: HEK293T cells (ATCC CRL-11268)
T1 sequence (Q96S37 1-553): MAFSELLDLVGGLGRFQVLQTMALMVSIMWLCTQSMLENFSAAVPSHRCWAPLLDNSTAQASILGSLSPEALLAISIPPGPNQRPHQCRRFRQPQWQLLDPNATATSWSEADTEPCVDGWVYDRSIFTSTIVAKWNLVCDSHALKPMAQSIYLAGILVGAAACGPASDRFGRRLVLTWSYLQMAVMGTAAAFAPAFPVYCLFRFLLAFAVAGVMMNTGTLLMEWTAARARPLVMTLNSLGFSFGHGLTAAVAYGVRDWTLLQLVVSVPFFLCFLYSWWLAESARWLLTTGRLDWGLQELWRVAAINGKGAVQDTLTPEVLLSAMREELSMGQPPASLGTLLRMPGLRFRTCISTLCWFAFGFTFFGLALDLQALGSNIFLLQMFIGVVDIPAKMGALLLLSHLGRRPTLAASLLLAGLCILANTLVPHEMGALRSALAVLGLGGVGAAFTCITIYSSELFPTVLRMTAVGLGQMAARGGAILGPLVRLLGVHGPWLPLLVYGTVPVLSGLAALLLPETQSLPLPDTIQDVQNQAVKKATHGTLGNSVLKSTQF
Put plainly: In vitro URAT1 inhibitory assay (14C-uric acid uptake in HEK293T cells expressing human URAT1). It is filed as cell-based. The conditions noted are these: HEK293-URAT1 cells, 14C-labeled uric acid substrate; for inhibition at 10 µM: HEK-293T, 10 μM compound, mean of three measurements. As for the experimental part:
All the target compounds were evaluated for their URAT1 inhibitory activities in HEK293-URAT1 cells using ^14C-labeled uric acid as the substrate. […] The SAR exploration on series A compounds mainly focused on the hydrophobic component. […] For series B compounds, the ortho-substituted biphenyl carboxylic acid was initially kept, and various aromatic components were incorporated (B1–B25). […] Different substituents were introduced onto the 4-pyridyl (B15–B21).
In Vitro URAT1 Inhibitory Assay. A transient expression system of human URAT1 in HEK293T cells was constructed to measure ^14C-uric acid transport. […] The cell cryovials were removed from liquid nitrogen storage, and immediately placed on dry ice prior to thawing. […] The cell suspension was transferred into a 15 mL centrifuge tube, and 10 mL complete medium (DMEM +10% FBS +500 μg/mL G418 +1% P/S) was added. After centrifugation at 1000 rpm for 5 min, the supernatant was discarded, and cell precipitation was resuspended in 5 mL complete medium and transferred to a T75 culture flask. […] The uptake assay test could be carried out after cell culture adherent to the well in the 96-well plate. Then, the cells were washed with 200 µL/well of pre-warmed Cl^- free HBSS buffer, and all buffer was removed at the last washing. 50 µL/well of Cl^- free HBSS Buffer containing Uric acid [8-^14C] (2.5 μCi/mL) and samples were added to the cells, and incubated for 8 min. Then, the cells were washed three times with Cl^- free HBSS Buffer and all buffer was removed at the last washing. 50 µL/well of lysis buffer (100 mM NaOH) was added to the lysate cells and stirred at 900 rpm for 5 min. 150 µL/well MicroScint™-40 cocktail was added and agitated at 900 rpm for 5 min. Finally, the 96-plate was counted in a MicroBeta2 (PerkinElmer). The data were analyzed and IC50 values was calculated with GraphPad Prism 6 software.

For `O=C(O)c1ccccc1-c1ccccc1-c1nc(-c2ccccn2)no1` [Compound B12], the melting point was in the range of 190 to 193 °C. In series [1], this molecule had an inhibition at 10 µM of 27%.
Taken in the same sequence, the figures for `O=C(O)c1ccccc1-c1ccccc1C(=O)N1CCc2ccccc2C1` [Compound A15] were 171 to 173 °C and 25%.
Turning to `O=C(O)c1ccccc1-c1ccccc1-c1nc(-c2ccnc(F)c2)no1` [Compound B17], the melting point lay in the range of 98 to 100 °C. In series [1], this molecule yielded an IC50 of 0.98 µM and an inhibition at 10 µM of 90%.
The molecule `O=C(O)c1ccccc1-c1ccccc1-c1nc(-c2ccc(F)cc2)no1` [Compound B1] showed a melting point of 150 to 153 °C. Moreover, the inhibition at 10 µM in series [1] is 56%.
Regarding `O=C(O)c1ccccc1-c1ccccc1C(=O)NCc1ccncc1` [Compound A17], the melting point was 118 to 120 °C. In series [1], this molecule had an inhibition at 10 µM of less than 10%.
Taken in the same sequence, the figures for `O=C(O)c1ccccc1-c1ccccc1-c1nc(-c2ccc(Cl)cc2)no1` [Compound B3] were 154 to 156 °C and 55%.
Molecule `O=C(O)c1ccccc1-c1ccccc1-c1nc(-c2ccnc(Br)c2)no1` [Compound B15] returned a melting point of 165 to 168 °C. Besides, in series [1], the half-inhibitory concentration (IC50) stood at 0.25 µM and at 10 µM the inhibition was 97%.
Regarding `COc1ccc(-c2noc(-c3ccccc3-c3ccccc3C(=O)O)n2)cc1` [Compound B5], the melting point was in the range of 154 to 157 °C. In series [1], this molecule showed an inhibition at 10 µM of 68%.
With `O=C(O)c1ccccc1-c1ccccc1C(=O)N1CCCc2cc(Br)ccc21` [Compound A7], the melting point was in the range of 261 to 262 °C. In addition, in series [1], the IC50 was 1.1 µM and at 10 µM the inhibition was 94%.
`O=C(O)CCNC(=O)c1ccccc1-c1ccccc1-c1nc(-c2ccncc2Cl)no1` [Compound B26] displayed a melting point of 240 to 242 °C. In series [1], at 10 µM the inhibition was 35%.
Molecule `COc1ccc(-c2noc(-c3ccccc3-c3ccccc3C(=O)O)n2)c2ccccc12` [Compound B25] had a melting point of 169 to 171 °C. In series [1], the inhibition at 10 µM stood at 42%.
Taken in the same sequence, the figures for `O=C(O)c1ccccc1-c1ccccc1-c1nc(-c2ccncn2)no1` [Compound B11] were 167 to 169 °C and 30%.
Molecule `O=C(O)c1ccccc1-c1ccccc1-c1nc(-c2ccc(Br)cc2)no1` [Compound B4] registered a melting point of 148 to 150 °C. The same molecule returned an inhibition at 10 µM in series [1] of 61%.
For `O=C(O)c1ccccc1-c1ccccc1-c1nc(-c2ccncc2Cl)no1` [Compound B21], in series [1], the IC50 was 0.17 µM and 10 µM produced 98% inhibition.
The molecule `O=C(O)c1ccccc1-c1ccc(C(=O)N2CCCc3ccccc32)cc1` [Compound A20] had a melting point of 165 to 167 °C. In addition, the inhibition at 10 µM in series [1] was less than 10%.
The molecule `O=C(O)c1ccccc1-c1ccccc1C(=O)N1CCCc2ccc(Br)cc21` [Compound A6] had a melting point of 231 to 233 °C. In series [1], this molecule showed an IC50 of 1.1 µM and an inhibition at 10 µM of 84%.
Consider `O=C(O)c1ccccc1-c1ccccc1-c1nc(-c2cccc(Br)c2)no1` [Compound B7], for which the melting point lay in the range of 119 to 121 °C. Besides, in series [1], the inhibition at 10 µM was determined as 44%.
In turn, `O=C(O)c1ccccc1-c1ccccc1C(=O)N1CCCc2ccc(-c3ccc(F)cc3)cc21` [Compound A12] displayed a melting point of 245 to 246 °C. The molecule also showed an inhibition at 10 µM in series [1] of 29%.
Regarding `O=C(O)c1ccccc1-c1ccccc1-c1nc(-c2ccncc2)no1` [Compound B14], the melting point was 188 to 191 °C. In series [1], the IC50 came to 1.8 µM and at 10 µM the inhibition was 88%.
Taken in the same sequence, the figures for `O=C(O)c1ccccc1-c1ccccc1C(=O)N1CCCc2ccc(Cl)cc21` [Compound A9] were 233 to 234 °C, 2.2 µM and 85%.
Molecule `CN(C(=O)c1ccccc1-c1ccccc1C(=O)O)c1ccccc1` [Compound A16] returned a melting point of 169 to 172 °C. Further, in series [1], at 10 µM the inhibition was 13%.
Turning to `O=C(O)c1ccccc1-c1ccccc1C(=O)N1CCCc2ccc(-c3ccncc3)cc21` [Compound A13], the melting point lay within 266 to 268 °C. In series [1], this molecule registered an IC50 of 1.5 µM and an inhibition at 10 µM of 86%.
As to `O=C(O)c1ccccc1-c1ccccc1-c1nc(-c2cccnc2)no1` [Compound B13], the melting point fell in the range of 210 to 212 °C. Also, 10 µM produced 64% inhibition in series [1].
With `Cc1cc(-c2noc(-c3ccccc3-c3ccccc3C(=O)O)n2)cc(C)n1` [Compound B20], the melting point was 214 to 216 °C. In series [1], the IC50 was 3.1 µM and 10 µM produced 76% inhibition.
Taken in the same sequence, the figures for `COc1ccc2c(c1)CCCN2C(=O)c1ccccc1-c1ccccc1C(=O)O` [Compound A10] were 198 to 200 °C, 1.8 µM and 88%.
For `O=C(O)c1ccccc1-c1ccccc1C(=O)N1CCOc2ccccc21` [Compound A2] the same measures were 174 to 176 °C, 3.9 µM and 75%.
In turn, `Cc1ccc(-c2noc(-c3ccccc3-c3ccccc3C(=O)O)n2)cc1` [Compound B6] registered a melting point of 151 to 153 °C. Further, the inhibition at 10 µM in series [1] stood at 45%.
Molecule `O=C(O)c1ccccc1-c1ccccc1-c1nc(-c2ccco2)no1` [Compound B8] returned a melting point of 171 to 175 °C. Moreover, the inhibition at 10 µM in series [1] turned out to be 56%.
Taken in the same sequence, the figures for `O=C(O)c1ccccc1-c1ccccc1C(=O)Nc1ccnc2ccccc12` [Compound A19] were 176 to 178 °C and 24%.
The molecule `O=C(O)c1ccccc1-c1ccccc1-c1nc(-c2cnc3ccccc3c2)no1` [Compound B23] came in with a melting point of 236 to 238 °C. Besides, in series [1], the IC50 is 6.1 µM and the inhibition at 10 µM was 74%.
The molecule `O=C(O)c1ccccc1-c1ccccc1C(=O)N1CCSc2ccccc21` [Compound A3] yielded a melting point of 193 to 195 °C. This molecule displayed an inhibition at 10 µM in series [1] of 78%.
Molecule `O=C(O)c1ccccc1-c1ccccc1-c1nc(-c2ccc3ncccc3c2)no1` [Compound B24] showed a melting point of 264 to 266 °C. In series [1], this molecule had an inhibition at 10 µM of 67%.
For `Cc1cc(-c2noc(-c3ccccc3-c3ccccc3C(=O)O)n2)ccn1` [Compound B18], the melting point is 228 to 230 °C. In series [1], this molecule gave a 50% inhibitory concentration (IC50) of 0.28 µM and an inhibition at 10 µM of 97%.
`O=C(O)c1ccccc1-c1ccccc1-c1nnc(-c2ccncc2)o1` [Compound B30] came in with a melting point of 237 to 239 °C. This molecule also gave an inhibition at 10 µM in series [1] of 33%.
`O=C(O)c1ccccc1-c1ccccc1-c1nc(-c2ccnc(Cl)c2)no1` [Compound B16] returned a melting point of 145 to 147 °C. For the same molecule, in series [1], 0.27 µM corresponded to half-maximal inhibition (IC50) and the inhibition at 10 µM is 97%.
The molecule `O=C(O)c1ccccc1-c1ccccc1-c1nc(-c2ccc(C(F)(F)F)cc2)no1` [Compound B2] displayed a melting point of 173 to 175 °C. In addition, in series [1], the inhibition at 10 µM was found to be 39%.
Turning to `Cc1ccc2c(c1)CCCN2C(=O)c1ccccc1-c1ccccc1C(=O)O` [Compound A11], the melting point is 220 to 222 °C. In series [1], this molecule returned an IC50 of 2.1 µM and an inhibition at 10 µM of 91%.
Molecule `O=C(O)c1ccccc1-c1ccccc1C(=O)N1CCCCc2ccccc21` [Compound A5] showed a melting point of 215 to 217 °C. In series [1], this molecule showed an inhibition at 10 µM of 72%.
In series [1], `O=C(O)c1ccccc1-c1ccccc1C(=O)N1CCCc2ccccc21` [Compound A1] had an IC50 of 0.93 µM and an inhibition at 10 µM of 89%.
`O=C(O)c1ccccc1-c1cccc(C(=O)N2CCCc3ccccc32)c1` [Compound A21] returned a melting point of 100 to 102 °C. This molecule also came in with an inhibition at 10 µM in series [1] of less than 10%.
